Source: US20090005338A1, “Carbonyl-substituted titanocenes” (Charite - Universitatsmedizin Berlin, priority 2006, published 2009)

How the values were obtained:
[1] = test system: primary lymphoblasts from an ALL patient; test: Apoptosis induction in primary lymphoblasts ex vivo (DNA fragmentation, propidium iodide, FACS); type: cell-based, human; settings: 60 h, concentration in the range of LD50 in the BLAB cell line; for apoptosis induction in primary lymphoblasts (in words): therapy-resistant leukemia cells
Protocol: The concentrations employed were selected to always be within the respective range of LD50 when the BLAB cell line was used. Thereafter, the cells were incubated at 37° C. and 5% CO2 for 60 hours, followed by staining with propidium iodide and quantifying by flow cytometry in FACS (Prokop et al., 2003).
The incubation was effected at 37° C. and 5% CO2 for 60 h. Apoptosis induction was measured as DNA fragmentation by flow cytometry after propidium iodide staining.

[2] = test system: lymphoma cells (BLAB); settings: various concentrations, 72 h
Protocol: Lymphoma cells (BLAB) were treated with the carbonyl-substituted titanocene (2), the conventional nucleoside analogue cytarabin (AraC), which is used in the therapy of malignant diseases, and with the combination of (2) and AraC in various concentrations for 72 h. The apoptosis induction was examined by flow cytometry by measuring the DNA fragmentation after staining the cells with propidium iodide. The measured values of three independent examinations are shown, wherein the error bars show the standard deviations from the mean.

[3] = test system: human lymphoma cells; settings: SCID mice, microcrystalline suspension p.o., 5×50 mg/kg body weight per week over 2 weeks from day 14; Mann-Whitney U test p<0.05
Protocol: The mean values of the tumor volumes (*=significance) with standard deviations as a function of therapy duration (application of (2) from day 14 with 5×50 mg/kg body weight per week p.o. over 2 weeks) are shown.

[4] = test system: BJAB cells; settings: 48 h, concentration-dependent
Protocol: After treatment of the cells with different concentrations of a titanocene including a zero control and a solvent control (DMSO), the cells are incubated at 37° C. and 5% CO2 for 48 hours.
The incubation was effected at 37° C. and 5% CO2 for 48 h including zero and solvent controls, followed by staining the cells with the mitochondria-specific stain JC-1 and detection of the color change and thus the change of the mitochondrial membrane potential by flow cytometry.

[5] = test system: BJAB cells (Burkitt lymphoma cell line); test: Apoptosis induction detected as DNA fragmentation by flow cytometry (FACS) after propidium iodide staining; type: cell-based; settings: 72 h
Protocol: Within the scope of apoptotic cell death, the cell is dismantled proteolytically by caspases from inside. Thereupon, the DNA is also fragmented, inter alia. This DNA fragmentation, which is specific for apoptosis, is considered a proof of apoptosis induction and is detected by means of flow cytometry on the single cell level.
BJAB cells (Burkitt lymphoma cell line) in different concentrations were treated with a titanocene derivative and incubated at 37° C. and 5% CO2 for 72 hours. A control (untreated cell suspension) and a solvent control with dimethyl sulfoxide (DMSO) were continuously included. After incubation for 72 hours, apoptosis induction was detected by flow cytometry (FACS) through DNA fragmentation with propidium iodide (Eβmann, 2000).
FIG. 1: BLAB mock cells (1×10^5/ml) were treated with increasing concentrations of the titanocene derivative 4-[1-(dichlorotitanocenyl)]-4-methylbutyric acid n-octylamide (2) and incubated at 37° C. and 5% CO2 for 72 h. After propidium iodide staining, the DNA fragments were detected by flow cytometry (FACS analysis). Ko (untreated cell suspension) and DMSO (solvent control) were included with equivalent treatment.
Since the activity of the cytostatic agents develops in the malignant cells through a specific apoptosis induction, it is reasonable to measure this effect and thus the selectivity of our compounds rather than stating, as usual, the non-specific cytotoxicity described by the LC50 values. Therefore, for examining the structure-effect relationship of our titanocenes, we have established the concentration (AC50) at which a specific apoptosis is induced in […] of the lymphoma cells.
For determining this value, lymphoma cells (10^5/ml BJAB cells) were incubated in different concentrations with (21) at 5% CO2 and 37° C. for 72 h. After staining with propidium iodide, the DNA fragmentation was detected by flow cytometry by means of a FACS analysis.

[6] = SCID mice, oral therapy 50 mg/kg body weight
[7] = test system: BLAB cells; settings: 3 h incubation, highest concentration
Protocol: A non-specific cytotoxic effect of the titanocenes via necrosis could be excluded by measuring the extracellular lactate dehydrogenase (LDH) release by ELISA reader detection after incubation for 3 h.

[8] = test system: BJAB cells; settings: 75 μM, 72 h

With COc1cccc2c1C(=O)c1c(O)c3c(c(O)c1C2=O)C[C@@](O)(C(=O)CO)C[C@@H]3O[C@H]1C[C@H](N)[C@H](O)[C@H](C)O1 [doxorubicin] the “apoptosis induction in primary lymphoblasts (in words)” value (“apoptosis induction … (in words)” for short) [1] was “did not induce any significant apoptosis”.

In the case of COc1cccc2c1C(=O)c1c(O)c3c(c(O)c1C2=O)C[C@@](O)(C(=O)CO)C[C@@H]3O[C@H]1C[C@H](N)[C@@H](O)[C@H](C)O1 [epirubicin], the “apoptosis induction … (in words)” value [1] is reported as “did not induce any significant apoptosis”.

With Nc1ccn([C@@H]2O[C@H](CO)[C@@H](O)[C@@H]2O)c(=O)n1 [cytarabin] the “apoptosis induction … (in words)” value [1] was “did not induce any significant apoptosis”.

For “4-[1-(dichlorotitanocenyl)]-4-methylbutyric acid n-octylamide [Complex (2)]”, the “effect of the combination with AraC on apoptosis induction” value [2] was “significant synergistic effect”, the “growth of human lymphoma cells (tumor volume)” value [3] was “significantly inhibited” and the “proportion of cells with changed mitochondrial membrane potential (ΔΨm)” value [4] was “more than 70%”. For the same compound, the “apoptosis induced, proportion of BJAB cells” value ([5]; 100 μM) was “about 840%”, the AC50 ([5]; BJAB cell line, 37° C., 5% CO2, read-out: AC50 (concentration at which a specific apoptosis is induced in 500% of the lymphoma cells)) was 55 µM and the “concentration-dependent apoptosis induction (proportion of apoptotic cells in the total population)” value ([5]; BJAB, highest effect over the concentrations tested) was “up to 80%”. The “apoptosis induction, proportion of leukemia cells ex vivo” value [1] was “about 60%”, the tolerability [6] was “good tolerability” and the “viability of the cell population (LDH release)” value [7] was “above 94%”. The cell morphology [8] was “significant swelling and “blebbing” that is characteristic of apoptosis”.

In the case of CC(=O)[C@]1(O)Cc2c(O)c3c(c(O)c2[C@@H](O[C@H]2C[C@H](N)[C@H](O)[C@H](C)O2)C1)C(=O)c1ccccc1C3=O [idarubicin], the “apoptosis induction … (in words)” value [1] is reported as “did not induce any significant apoptosis”.

In the case of COc1cccc2c1C(=O)c1c(O)c3c(c(O)c1C2=O)C[C@@](O)(C(C)=O)C[C@@H]3O[C@H]1C[C@H](N)[C@H](O)[C@H](C)O1 [daunorubicin], the “apoptosis induction … (in words)” value [1] is reported as “did not induce any significant apoptosis”.

For CC[C@]1(O)C[C@H]2CN(CCc3c([nH]c4ccccc34)[C@@](C(=O)OC)(c3cc4c(cc3OC)N(C=O)[C@H]3[C@@](O)(C(=O)OC)[C@H](OC(C)=O)[C@]5(CC)C=CCN6CC[C@]43[C@@H]65)C2)C1 [vincristin], the “apoptosis induction … (in words)” value [1] was “did not induce any significant apoptosis”.
